Assay results: patent publication US11225462B2, “Crystal forms of oxypyridine amide derivative and preparation method therefor” (JIANGSU HENGRUI MEDICINE CO., LTD., priority 2018, dated 2022)

Assays:
Assay type in all cases: physicochemical
[1] = DVS (dynamic vapor sorption) hygroscopicity characterization; conditions: for mass increase under normal conditions: 25° C. and 60% RH; for hygroscopicity according to guidelines for drug hygroscopicity test in China Pharmacopoeia (2015 edition) / mass increase as the humidity increases: 25° C., 10% RH to 80% RH; for mass increase under accelerated test conditions: 70% RH; for mass increase under extreme conditions: 90% RH; for desorption process and adsorption process of the sample: humidity change from 0% to 95%
Experimental: DVS refers to dynamic vapor sorption and is determined using SMS DVS Advantage at 25° C., with the humidity change of 50%-95%-0%-95%-50% and the stepping of 10% (5% for the last step) (the specific humidity range is determined in accordance with the corresponding plot, and the methods listed herein are those most commonly used), and the standard for determination is as follow: dm/dt is not more than 0.02%, and Tmax is not more than 360 min.

[2] = Influencing factor experiments (light, high temperature, high humidity, 30 days); conditions: for Crystal form: day 5 to day 10, time not clear
Experimental: Crystal forms A, B, D and F of the compound of formula (I) were spread and left open to the air, and under conditions of high temperature (40° C. and 60° C.), light (4500 Lux), high humidity (RH 75% and RH 90%), the stability thereof were investigated for a period of 30 days.

[3] = Long-term and accelerated stability experiments (3 months)
Experimental: The long-term (25° C., 60% RH) and accelerated (40° C., 75% RH) stability of crystal form A and crystal form F of the compound of formula (I) were investigated for 3 months.

Compound: CCC(=O)c1ccc(Cl)cc1-c1cc(=O)n([C@@H](CCOC(C)(C)C)C(=O)Nc2ccc(C(=O)O)cc2)cc1OC [Crystal form D, (S)-4-(4-(tert-butoxy)-2-(4-(5-chloro-2-propionylphenyl)-5-methoxy-2-oxopyridin-1(2H)-yl)butanamido)benzoic acid]
- mass increase under normal conditions [1]: about 2.143%
- hygroscopicity according to guidelines for drug hygroscopicity test in China Pharmacopoeia (2015 edition) [1]: hygroscopic (less than 15% but not less than 2%)
- mass increase as the humidity increases [1]: about 2.420%
- mass increase under accelerated test conditions [1]: about 2.494%
- mass increase under extreme conditions [1]: about 3.422%
- crystal form before and after DVS detection (XRPD comparison) [1]: crystallinity of the crystal form become worse
- desorption process and adsorption process of the sample [1]: do not coincide
- % Purity ([2]; 40° C., 5 days): 99.53%
- Color and trait ([2]; 40° C., 5 days): Off-white
- % Purity ([2]; 40° C., 10 days): 99.02%
- Color and trait ([2]; 40° C., 10 days): Off-white
- % Purity ([2]; 40° C., 30 days): 98.95%
- Color and trait ([2]; 40° C., 30 days): Off-white
- Crystal form ([2]; 40° C.): Amor-
- % Purity ([2]; 60° C., 5 days): 99.40%
- Color and trait ([2]; 60° C., 5 days): Off-white
- % Purity ([2]; 60° C., 10 days): 99.31%
- Color and trait ([2]; 60° C., 10 days): Off-white
- % Purity ([2]; 60° C., 30 days): 99.09%
- Color and trait ([2]; 60° C., 30 days): Off-white
- Crystal form ([2]; 60° C.): Amor-
- % Purity ([2]; 4500 Lux, 5 days): 99.58%
- Color and trait ([2]; 4500 Lux, 5 days): Off-white
- % Purity ([2]; 4500 Lux, 10 days): 99.57%
- Color and trait ([2]; 4500 Lux, 10 days): Off-white
- % Purity ([2]; 4500 Lux, 30 days): 99.26%
- Color and trait ([2]; 4500 Lux, 30 days): Off-white
- Crystal form ([2]; 4500 Lux): Amor-
- % Purity ([2]; Initial condition, day 0): 99.59%
- Color and trait ([2]; Initial condition, day 0): Off-white
- % Purity ([2]; RH 75%, 5 days): 99.56%
- % Weight gain ([2]; RH 75%, 5 days): 5.30%
- Color and trait ([2]; RH 75%, 5 days): Off-white
- % Purity ([2]; RH 75%, 10 days): 99.53%
- % Weight gain ([2]; RH 75%, 10 days): 5.48%
- Color and trait ([2]; RH 75%, 10 days): Off-white
- % Purity ([2]; RH 75%, 30 days): 99.55%
- % Weight gain ([2]; RH 75%, 30 days): 5.56%
- Color and trait ([2]; RH 75%, 30 days): Off-white
- Crystal form ([2]; RH 75%): Amor-
- % Purity ([2]; RH 90%, 5 days): 99.57%
- % Weight gain ([2]; RH 90%, 5 days): 7.45%
- Color and trait ([2]; RH 90%, 5 days): Off-white
- % Purity ([2]; RH 90%, 10 days): 99.54%
- % Weight gain ([2]; RH 90%, 10 days): 8.67%
- Color and trait ([2]; RH 90%, 10 days): Off-white
- % Purity ([2]; RH 90%, 30 days): 99.55%
- % Weight gain ([2]; RH 90%, 30 days): 9.53%
- Color and trait ([2]; RH 90%, 30 days): Off-white
- Crystal form ([2]; RH 90%): Amor-

Compound: CCC(=O)c1ccc(Cl)cc1-c1cc(=O)n([C@@H](CCOC(C)(C)C)C(=O)Nc2ccc(C(=O)O)cc2)cc1OC [Crystal form F, (S)-4-(4-(tert-butoxy)-2-(4-(5-chloro-2-propionylphenyl)-5-methoxy-2-oxopyridin-1(2H)-yl)butanamido)benzoic acid]
- mass increase under normal conditions [1]: about 0.0457%
- hygroscopicity according to guidelines for drug hygroscopicity test in China Pharmacopoeia (2015 edition) [1]: hardly hygroscopic (less than 2%)
- mass increase as the humidity increases [1]: about 0.1464%
- mass increase under accelerated test conditions [1]: about 0.0701%
- mass increase under extreme conditions [1]: about 0.2744%
- crystal form before and after DVS detection (XRPD comparison) [1]: unchanged
- desorption process and adsorption process of the sample [1]: basically coincide
- % Purity 1 month ([3]; 25° C., 60% RH): 99.68%
- % Purity 2 months ([3]; 25° C., 60% RH): 99.65%
- % Purity 3 months ([3]; 25° C., 60% RH): 99.65%
- % Purity Initial condition ([3]; 25° C., 60% RH): 99.69%
- % Purity 1 month ([3]; 40° C., 75% RH): 99.68%
- % Purity 2 months ([3]; 40° C., 75% RH): 99.67%
- % Purity 3 months ([3]; 40° C., 75% RH): 99.66%
- % Purity Initial condition ([3]; 40° C., 75% RH): 99.69%
- physical and chemical stability (conclusion) ([3]; long-term (25° C., 60% RH) and accelerated (40° C., 75% RH) conditions for 3 months): good physical and chemical stability
- % Purity ([2]; 40° C., 5 days): 99.67%
- % Purity ([2]; 40° C., 10 days): 99.62%
- % Purity ([2]; 40° C., 30 days): 99.57%
- % Purity ([2]; 60° C., 5 days): 99.68%
- % Purity ([2]; 60° C., 10 days): 99.65%
- % Purity ([2]; 60° C., 30 days): 99.59%
- % Purity ([2]; 4500 Lux, 5 days): 99.66%
- % Purity ([2]; 4500 Lux, 10 days): 99.64%
- % Purity ([2]; 4500 Lux, 30 days): 99.64%
- % Purity ([2]; Initial condition, day 0): 99.67%
- % Purity ([2]; RH 75%, 5 days): 99.65%
- % Weight gain ([2]; RH 75%, 5 days): 5.23%
- % Purity ([2]; RH 75%, 10 days): 99.63%
- % Weight gain ([2]; RH 75%, 10 days): 5.34%
- % Purity ([2]; RH 75%, 30 days): 99.62%
- % Weight gain ([2]; RH 75%, 30 days): 10.03%
- % Purity ([2]; RH 90%, 5 days): 99.66%
- % Weight gain ([2]; RH 90%, 5 days): 7.26%
- % Purity ([2]; RH 90%, 10 days): 99.63%
- % Weight gain ([2]; RH 90%, 10 days): 8.40%
- % Purity ([2]; RH 90%, 30 days): 99.65%
- % Weight gain ([2]; RH 90%, 30 days): 12.83%
- physical and chemical stability (conclusion) ([2]; light, 40° C., 60° C., 75% RH or 90% RH for 30 days): good physical and chemical stability
